Measured values as given in ChEMBL document CHEMBL6074682, “Expanding the therapeutic window of gramicidin S towards a safe and effective systemic treatment of methicillin-resistant S. aureus infections” (Eur J Med Chem, 2025).
In brackets after ≈: the same amount, converted by molar mass. Square brackets hold non-standard residues; d marks the D form. Peptide text beside a SMILES is read from it. Tle = CC(C)(C)[C@H](N)C(=O)O; Orn = NCCC[C@H](N)C(=O)O

How the values were obtained:
[1] = tested on: Staphylococcus aureus; test: Antibacterial activity against methicillin-sensitive Staphylococcus aureus ATCC 29213 clinical isolate assessed as bacterial growth inhibition at 256 to 0.125 ug/ml in CAMH broth medium incubated for 16 to 20 hrs by broth microdilution method; format: functional; settings: dose 256-0.125 µg/ml, time 16-20 hrs
[2] = tested on: Staphylococcus aureus; test: Antibacterial activity against methicillin-resistant Staphylococcus aureus ATCC USA 300 clinical isolate assessed as bacterial growth inhibition at 256 to 0.125 ug/ml in CAMH broth medium incubated for 16 to 20 hrs by broth microdilution method; format: functional; settings: dose 256-0.125 µg/ml, time 16-20 hrs
[3] = Hemolytic activity in human RBC assessed as hemolysis incubated for 1 hr by absorbance based assay; format: toxicity, cell-based, Erythrocyte; settings: human red blood cells
[4] = Nephrotoxicity against HEK293 cells assessed as cell viability incubated for 24 hrs by MTT assay; format: toxicity, cell-based; settings: human
[5] = Retention time of the compound by RP-HPLC analysis; format: physicochemical
[6] = Therapeutic index, ratio of HC50 for human RBC to MIC for antibacterial activity against methicillin-sensitive Staphylococcus aureus ATCC 29213 clinical isolate; format: toxicity, cell-based; settings: pooled result: one value given for 2 cell lines, strains, targets or settings, read-out: TI
[7] = Hemolytic activity in sheep RBC; format: toxicity, cell-based, Ovis aries, Erythrocyte; settings: sheep red blood cells

Row | Structure (SMILES) | MIC [1] [µg/mL] | MIC [2] [µg/mL] | HC50 at 1 h [3] [µg/mL] | IC50 at 24 h [4] [µg/mL] | Retention_time [5] [min] | selectivity ratio [6] | HC50 [7] [µg/mL]
1 | CC(C)C[C@@H]1NC(=O)[C@H](CCCN)NC(=O)[C@H](C(C)C)NC(=O)[C@@H]2CCCN2C(=O)[C@@H](Cc2ccccc2)NC(=O)[C@H](CC(C)C)NC(=O)[C@H](CCCN)NC(=O)[C@H](C(C)C)NC(=O)[C@@H]2CCCN2C(=O)[C@@H](CCCNC(=N)N)NC1=O (HELM PEPTIDE1{L.[dF].P.V.[Orn].L.[dR].P.V.[Orn]}$PEPTIDE1,PEPTIDE1,1:R1-10:R2$$$V2.0) | 8 (≈ 6.95 µM) | 8 (≈ 6.95 µM) | 39.2 | 18.7 (≈ 16.2 µM) | 16.22 | 4.9 | > 115
2 | CC(C)C[C@@H]1NC(=O)[C@H](CCCN)NC(=O)[C@H](C(C)C)NC(=O)[C@H](Cc2c[nH]c3ccccc23)NC(=O)[C@@H](Cc2c[nH]c3ccccc23)NC(=O)[C@H](CC(C)C)NC(=O)[C@H](CCCN)NC(=O)[C@H](C(C)C)NC(=O)[C@H](Cc2c[nH]c3ccccc23)NC(=O)[C@@H](Cc2ccccc2)NC1=O (HELM PEPTIDE1{L.[dF].W.V.[Orn].L.[dW].W.V.[Orn]}$PEPTIDE1,PEPTIDE1,1:R1-10:R2$$$V2.0) | 64 (≈ 47.1 µM) | 64 (≈ 47.1 µM) | 37.2 | 4.07 (≈ 3 µM) | 18.68 | 0.58 | 
3 | CC(C)(C)[C@@H]1NC(=O)[C@H](CCCN)NC(=O)[C@H](C(C)(C)C)NC(=O)[C@@H]2CCCN2C(=O)[C@@H](Cc2ccccc2)NC(=O)[C@H](C(C)(C)C)NC(=O)[C@H](CCCN)NC(=O)[C@H](C(C)(C)C)NC(=O)[C@@H]2CCCN2C(=O)[C@@H](Cc2ccccc2)NC1=O (cyclo([Orn][Tle][dF]P[Tle][Orn][Tle][dF]P[Tle])) | 2 (≈ 1.71 µM) | 2 (≈ 1.71 µM) | 5.9 | 5.31 (≈ 4.54 µM) | 19.9 | 2.95 | 
4 | CC(C)(C)[C@@H]1NC(=O)[C@H](CCCN)NC(=O)[C@H](C(C)(C)C)NC(=O)[C@@H]2CCCN2C(=O)[C@@H](Cc2ccccc2)NC(=O)[C@H](C(C)(C)C)NC(=O)[C@H](CCCN)NC(=O)[C@H](C(C)(C)C)NC(=O)[C@@H]2CCCN2C(=O)[C@@H](CCCNC(=N)N)NC1=O (cyclo([Orn][Tle][dF]P[Tle][Orn][Tle][dR]P[Tle])) | 6 (≈ 5.09 µM) | 6 (≈ 5.09 µM) | 84.1 | 12.6 (≈ 10.7 µM) | 16.92 | 14 | 
5 | CC(C)C[C@@H]1NC(=O)[C@H](CCCN)NC(=O)[C@H](C(C)C)NC(=O)[C@@H]2CCCN2C(=O)[C@@H](Cc2ccccc2)NC(=O)[C@H](CC(C)C)NC(=O)[C@H](CCCN)NC(=O)[C@H](C(C)C)NC(=O)[C@@H]2CCCN2C(=O)[C@@H](Cc2ccccc2)NC1=O [GRAMICIDIN S] (HELM PEPTIDE1{L.[dF].P.V.[Orn].L.[dF].P.V.[Orn]}$PEPTIDE1,PEPTIDE1,1:R1-10:R2$$$V2.0) | 4 (≈ 3.5 µM) | 4 (≈ 3.5 µM) | 12.3 | 6.45 (≈ 5.65 µM) | 18.57 | 3.09 | 
